From patent publication US4640799A, “Carbapenem antibiotics” (priority 1985, dated 1987)

System: S. aureus A-9606
Assay: Protective effect in the intramuscular treatment of infected mice
Assay type: in vivo
Conditions: Staphylococcus aureus, A9606, im, i.m. 0 and 2 h postinfection, i.p. challenge ~9 × 10^7 (Ex. 4 and 5), read-out: PD50/treatment
Protocol: Treatment Schedule: *For compound of Ex. 2, mice were infected i.p. with
A20481. For compounds of Ex. 4 and 5, mice were infected i.p. with
(A9843A). Mice were treated i.m. with drugs 0 and 2 h postinfection.

## C[C@@H](O)[C@H]1C(=O)N2C(C(=O)[O-])=C(SCC[N+]3(C)CC[S+]([O-])CC3)C[C@H]12 (single isomer, unassigned) [Ex. 5 comp. A]
  ED50: 1.2 mg/kg

## C[C@@H](O)[C@H]1C(=O)N2C(C(=O)[O-])=C(SCC[N+]3(C)CCSCC3)C[C@H]12 [Ex. 2, 3-[2-(N-methyl-thiomorpholinium)ethylthio]-6α-[1'-(R)-hydroxyethyl]-7-oxo-1-azabicyclo[3.2.0]-hept-2-ene-2-carboxylate]
  ED50: 0.72 mg/kg

## C[C@@H](O)[C@H]1C(=O)N2C(C(=O)[O-])=C(SCC[N+]3(C)CCN(C)CC3)C[C@H]12 [Ex. 4, (5R,6S)3-[2-(1,4-dimethyl-1-piperazinium)ethylthio]-6-[1-(R)-hydroxyethyl]-7-oxo-1-azabicyclo[3.2.0]hept-2-ene-2-carboxylate]
  ED50: 1.6 mg/kg
